ChEMBL document CHEMBL1145206, “Design, synthesis and structure-activity relationships of novel taxane-based multidrug resistance reversal agents” (2005)

Test system: MDA-MB-435
Test: MDR-reversal activity evaluated against the resistant human breast tumor cell line MDA-435/LCC6-MDR
Format: functional
Design: concentration or dose not given beside the values

Compound | Reduction [%]
CC(=O)O[C@H]1C(=O)[C@]2(C)[C@@H](OC(=O)c3ccc(C(=O)c4ccccc4)cc3)C[C@H]3OC[C@@]3(OC(C)=O)[C@H]2[C@H](OC(=O)c2ccccc2)[C@]2(O)C[C@H](OC(C)=O)C(C)=C1C2(C)C | 88
CC(=O)O[C@H]1C(=O)[C@]2(C)[C@@H](OC(=O)/C=C/c3ccc(Oc4ccccc4)cc3)C[C@H]3OC[C@@]3(OC(C)=O)[C@H]2[C@H](OC(=O)c2ccccc2)[C@]23OC(=O)O[C@H]2[C@H](OC(C)=O)C(C)=C1C3(C)C | 90
CC(=O)O[C@H]1C(=O)[C@]2(C)[C@@H](OC(=O)/C=C/c3ccc(O)cc3)C[C@H]3OC[C@@]3(OC(C)=O)[C@H]2[C@H](OC(=O)c2ccccc2)[C@]2(O)C[C@H](OC(C)=O)C(C)=C1C2(C)C | 34
CC(=O)O[C@H]1C(=O)[C@]2(C)[C@@H](OC(=O)/C=C/c3cccc(OC(=O)c4ccccc4)c3)C[C@H]3OC[C@@]3(OC(C)=O)[C@H]2[C@H](OC(=O)c2ccccc2)[C@]2(O)C[C@H](OC(C)=O)C(C)=C1C2(C)C | 17
COc1ccc(CC(=O)O[C@H]2C(=O)[C@]3(C)[C@@H](OC(=O)/C=C/c4ccc(C(=O)c5ccccc5)cc4)C[C@H]4OC[C@@]4(OC(C)=O)[C@H]3[C@H](OC(=O)c3ccccc3)[C@]3(O)C[C@H](OC(C)=O)C(C)=C2C3(C)C)cc1 | 7
CC(=O)O[C@H]1C(=O)[C@]2(C)[C@@H](OC(C)=O)C[C@H]3OC[C@@]3(OC(C)=O)[C@H]2[C@H](OC(=O)/C=C/c2ccc(C(=O)c3ccccc3)cc2)[C@]2(O)C[C@H](OC(C)=O)C(C)=C1C2(C)C | 27
CC(=O)O[C@H]1C(=O)[C@]2(C)[C@@H](OC(=O)CCc3c(F)c(F)c(F)c(F)c3F)C[C@H]3OC[C@@]3(OC(C)=O)[C@H]2[C@H](OC(=O)c2ccccc2)[C@]2(O)C[C@H](OC(C)=O)C(C)=C1C2(C)C | 59
CCC(=O)O[C@H]1C(=O)[C@]2(C)[C@@H](OC(=O)/C=C/c3ccc(C(=O)c4ccccc4)cc3)C[C@H]3OC[C@@]3(OC(C)=O)[C@H]2[C@H](OC(=O)c2ccccc2)[C@]2(O)C[C@H](OC(C)=O)C(C)=C1C2(C)C | 88
CC(=O)O[C@H]1C[C@@]2(O)[C@@H](OC(=O)c3ccccc3)[C@@H]3[C@]4(OC(C)=O)CO[C@@H]4C[C@H](OC(=O)/C=C/c4ccc(C(=O)c5ccccc5)cc4)[C@@]3(C)C(=O)[C@H](OC(=O)c3ccccc3)C(=C1C)C2(C)C | 51
CC(=O)O[C@H]1C(=O)[C@]2(C)[C@@H](OC(=O)/C=C/c3ccc(Oc4ccccc4)cc3)C[C@H]3OC[C@@]3(OC(C)=O)[C@H]2[C@H](OC(=O)c2ccccc2)[C@]2(O)C[C@H](OC(C)=O)C(C)=C1C2(C)C | 90
CC(=O)O[C@H]1C(=O)[C@]2(C)[C@@H](OC(=O)CCCCc3ccc(C(=O)c4ccccc4)cc3)C[C@H]3OC[C@@]3(OC(C)=O)[C@H]2[C@H](OC(=O)c2ccccc2)[C@]23OC(=O)O[C@H]2[C@H](OC(C)=O)C(C)=C1C3(C)C | 0
CC(=O)O[C@H]1C(=O)[C@]2(C)[C@@H](OC(=O)/C=C/c3cccc(NC(=O)c4ccccc4)c3)C[C@H]3OC[C@@]3(OC(C)=O)[C@H]2[C@H](OC(=O)c2ccccc2)[C@]2(O)C[C@H](OC(C)=O)C(C)=C1C2(C)C | 83
CC(=O)O[C@H]1C(=O)[C@]2(C)[C@@H](OC(=O)/C=C/c3ccc(C(=O)c4cc(C(F)(F)F)cc(C(F)(F)F)c4)cc3)C[C@H]3OC[C@@]3(OC(C)=O)[C@H]2[C@H](OC(=O)c2ccccc2)[C@]2(O)C[C@H](OC(C)=O)C(C)=C1C2(C)C | 36
CC(=O)O[C@H]1C(=O)[C@]2(C)[C@@H](OC(=O)/C=C/c3ccc(C(=O)c4ccc(F)cc4)cc3)C[C@H]3OC[C@@]3(OC(C)=O)[C@H]2[C@H](OC(=O)c2ccccc2)[C@]2(O)C[C@H](OC(C)=O)C(C)=C1C2(C)C | 92
CC(=O)O[C@H]1C(=O)[C@]2(C)[C@@H](OC(=O)/C=C/c3cccc(C(=O)c4ccc(C)cc4)c3)C[C@H]3OC[C@@]3(OC(C)=O)[C@H]2[C@H](OCc2ccccc2)[C@]2(O)C[C@H](OC(C)=O)C(C)=C1C2(C)C | 91
CC(=O)O[C@H]1C(=O)[C@]2(C)[C@@H](OC(=O)/C=C/c3ccc(OC(=O)c4ccc5ccccc5c4)cc3)C[C@H]3OC[C@@]3(OC(C)=O)[C@H]2[C@H](OC(=O)c2ccccc2)[C@]2(O)C[C@H](OC(C)=O)C(C)=C1C2(C)C | 29
CC(=O)O[C@H]1C[C@@]2(O)[C@@H](OC(=O)c3ccccc3)[C@@H]3[C@]4(OC(C)=O)CO[C@@H]4C[C@H](OC(C)=O)[C@@]3(C)C(=O)[C@H](OC(=O)/C=C/c3cccc(NC(=O)c4ccccc4)c3)C(=C1C)C2(C)C | 43
CC(=O)O[C@H]1C(=O)[C@]2(C)[C@@H](OC(=O)/C=C/c3ccc(OC(=O)c4ccc[nH]4)cc3)C[C@H]3OC[C@@]3(OC(C)=O)[C@H]2[C@H](OC(=O)c2ccccc2)[C@]23OC(=O)O[C@H]2[C@H](OC(C)=O)C(C)=C1C3(C)C | 63
CC(=O)O[C@H]1C(=O)[C@]2(C)[C@@H](OC(=O)Cc3ccc(C(=O)c4ccccc4)cc3)C[C@H]3OC[C@@]3(OC(C)=O)[C@H]2[C@H](OC(=O)c2ccccc2)[C@]2(O)C[C@H](OC(C)=O)C(C)=C1C2(C)C | 41
CC(=O)O[C@H]1C(=O)[C@]2(C)[C@@H](OC(=O)/C=C/c3ccc(OC(=O)c4cccc5ccccc45)cc3)C[C@H]3OC[C@@]3(OC(C)=O)[C@H]2[C@H](OC(=O)c2ccccc2)[C@]2(O)C[C@H](OC(C)=O)C(C)=C1C2(C)C | 89
CC(=O)O[C@H]1C(=O)[C@]2(C)[C@@H](OC(=O)c3ccnc4ccccc34)C[C@H]3OC[C@@]3(OC(C)=O)[C@H]2[C@H](OC(=O)c2ccccc2)[C@]2(O)C[C@H](OC(C)=O)C(C)=C1C2(C)C | 36
CC(=O)O[C@H]1C(=O)[C@]2(C)[C@@H](OC(=O)/C=C/c3ccc(C(=O)Oc4ccccc4)cc3)C[C@H]3OC[C@@]3(OC(C)=O)[C@H]2[C@H](OC(=O)c2ccccc2)[C@]2(O)C[C@H](OC(C)=O)C(C)=C1C2(C)C | 27
CC(=O)O[C@H]1C(=O)[C@]2(C)[C@@H](OC(=O)/C=C/c3ccc4c(c3)C(=O)c3ccccc3-4)C[C@H]3OC[C@@]3(OC(C)=O)[C@H]2[C@H](OC(=O)c2ccccc2)[C@]2(O)C[C@H](OC(C)=O)C(C)=C1C2(C)C | 91
CC(=O)O[C@H]1C(=O)[C@]2(C)[C@@H](OC(=O)/C=C/c3ccc(OC(=O)c4cccs4)cc3)C[C@H]3OC[C@@]3(OC(C)=O)[C@H]2[C@H](OC(=O)c2ccccc2)[C@]23OC(=O)O[C@H]2[C@H](OC(C)=O)C(C)=C1C3(C)C | 55
CC(=O)O[C@H]1C(=O)[C@]2(C)[C@@H](OC(=O)Cn3ccc4ccccc43)C[C@H]3OC[C@@]3(OC(C)=O)[C@H]2[C@H](OC(=O)c2ccccc2)[C@]2(O)C[C@H](OC(C)=O)C(C)=C1C2(C)C | 83
CC(=O)O[C@H]1C(=O)[C@]2(C)[C@@H](OC(=O)COc3ccc4ccccc4c3)C[C@H]3OC[C@@]3(OC(C)=O)[C@H]2[C@H](OC(=O)c2ccccc2)[C@]2(O)C[C@H](OC(C)=O)C(C)=C1C2(C)C | 86
CC(=O)O[C@H]1C[C@@]2(O)[C@@H](OC(=O)c3ccccc3)[C@@H]3[C@]4(OC(C)=O)CO[C@@H]4C[C@H](OC(=O)/C=C/c4ccc(C(=O)c5ccccc5)cc4)[C@@]3(C)C(=O)[C@H](OC(=O)OCc3ccccc3)C(=C1C)C2(C)C | 10
COc1ccccc1C(=O)Oc1ccc(/C=C/C(=O)O[C@H]2C[C@H]3OC[C@@]3(OC(C)=O)[C@H]3[C@H](OC(=O)c4ccccc4)[C@]45OC(=O)O[C@H]4[C@H](OC(C)=O)C(C)=C([C@@H](OC(C)=O)C(=O)[C@]23C)C5(C)C)cc1 | 79

Test system: MCF7R
Test: MDR-reversal activity evaluated against the resistant human breast tumor cell line MCF7-R
Format: functional
Design: concentration or dose not given beside the values

Compound | Reduction [%]
CC(=O)O[C@H]1C(=O)[C@]2(C)[C@@H](OC(=O)/C=C/c3ccc(C(=O)c4ccccc4)cc3)C[C@H]3OC[C@@]3(OC(C)=O)[C@H]2[C@H](OC(=O)c2ccccc2)[C@]2(O)C[C@H](O)C(C)=C1C2(C)C | 99.8
CC(=O)O[C@H]1C(=O)[C@]2(C)[C@@H](OC(=O)/C=C/c3ccc4ccccc4c3)C[C@H]3OC[C@@]3(OC(C)=O)[C@H]2[C@H](OC(=O)c2ccccc2)[C@]2(O)C[C@H](OC(C)=O)C(C)=C1C2(C)C | 99.3
CC(=O)O[C@H]1C(=O)[C@]2(C)[C@@H](OC(=O)CNC(=O)c3ccc4ccccc4c3)C[C@H]3OC[C@@]3(OC(C)=O)[C@H]2[C@H](OC(=O)c2ccccc2)[C@]2(O)C[C@H](O)C(C)=C1C2(C)C | 42
CC(=O)O[C@H]1C(=O)[C@]2(C)[C@@H](OC(=O)c3ccc4ccccc4c3)C[C@H]3OC[C@@]3(OC(C)=O)[C@H]2[C@H](OC(=O)c2ccccc2)[C@]2(O)C[C@H](O)C(C)=C1C2(C)C | 97.5
CC(=O)O[C@H]1C(=O)[C@]2(C)[C@@H](OC(=O)CCC3CCCC4CCCCC43)C[C@H]3OC[C@@]3(OC(C)=O)[C@H]2[C@H](OC(=O)C2CCCCC2)[C@]2(O)C[C@H](O)C(C)=C1C2(C)C (stereo partly drawn) | 81
CC(=O)O[C@@]12CO[C@@H]1C[C@H](OC(=O)/C=C/c1ccc3ccccc3c1)[C@@]1(C)C(=O)[C@H](OC(=O)/C=C/c3ccc4ccccc4c3)C3=C(C)[C@@H](O)C[C@@](O)([C@@H](OC(=O)c4ccccc4)[C@H]21)C3(C)C | 45
CC(=O)O[C@@]12CO[C@@H]1C[C@H](OC(=O)/C=C/c1ccc3ccccc3c1)[C@@]1(C)C(=O)[C@H](OC(=O)CCc3ccc(C(=O)c4ccccc4)cc3)C3=C(C)[C@@H](O)C[C@@](O)([C@@H](OC(=O)c4ccccc4)[C@H]21)C3(C)C | 0
CC(=O)O[C@@]12CO[C@@H]1C[C@H](O)[C@@]1(C)C(=O)[C@H](OC(=O)/C=C/c3ccc(C(=O)c4ccccc4)cc3)C3=C(C)[C@@H](O)C[C@@](O)([C@@H](OC(=O)c4ccccc4)[C@H]21)C3(C)C | 95
CC(=O)O[C@@]12CO[C@@H]1C[C@H](OC(=O)CCc1ccc(C(=O)c3ccccc3)cc1)[C@@]1(C)C(=O)[C@H](OC(=O)CCc3ccc(C(=O)c4ccccc4)cc3)C3=C(C)[C@@H](O)C[C@@](O)([C@@H](OC(=O)c4ccccc4)[C@H]21)C3(C)C | 99.7
CC(=O)O[C@H]1C(=O)[C@]2(C)[C@@H](OC(=O)CCc3cccc4ccccc34)C[C@H]3OC[C@@]3(OC(C)=O)[C@H]2[C@H](OC(=O)c2ccccc2)[C@]2(O)C[C@H](O)C(C)=C1C2(C)C | 96
